Source: US20190241569A1, “3-(ARYL OR HETEROARYL) METHYLENEINDOLIN-2-ONE DERIVATIVES AS INHIBITORS OF CANCER STEM CELL PATHWAY KINASES FOR THE TREATMENT OF CANCER” (Boston Biomedical, Inc., priority 2013, published 2019)
Where two headings read alike, the source gives them in different places.

How the values were obtained:
p-RPS6 Ser235/236 = assay: Kinase inhibition, Western blot in HeLa cells (Test Example 5); assay type: cell-based; details: Homo sapiens, 6 hours, DMSO = 100, read-out: p-RPS6 Ser235/236 Relative Intensity (%)
Description: (§1) HeLa cells were treated with 5 uM of the indicated compound for 6 hours. Following compound incubation, cells were washed twice with ice-cold PBS and lysed in lysis buffer (50 mM HEPES, pH 7.5, 1% Nonidet P40, 150 mM NaCl, 1 mM EDTA, 1× protease inhibitor cocktail (Promega)). 30 micrograms of soluble protein was separated by SDS-PAGE and transferred to PVDF membranes. Primary antibodies against p-AMPK Thr172, p-RPS6 Ser235/236, p-RPS6 Ser240/244, and Tubulin (Cell Signaling Technology) were used. The antigen-antibody complexes were visualized by enhanced chemiluminescence (BioRad). The results are shown below in Tables 17A-17E.

p-RPS6 Ser240/244 = assay: as above; assay type: cell-based; details: Homo sapiens, 6 hours, DMSO = 100, read-out: p-RPS6 Ser240/244 Relative Intensity (%)
Description: as §1

p-AMPK Thr172 = assay: as above; assay type: cell-based; details: Homo sapiens, 6 hours, DMSO = 100, read-out: p-AMPK Relative Intensity (%)
Description: as §1

ACHN CSC = assay: Cancer stem cells, Cell Titer-Glo 72 hours (Test Example 3); assay type: cell-based; details: Homo sapiens, ACHN, 72 h
FaDu CSC = assay: as above; assay type: cell-based; details: Homo sapiens, FaDu, 72 h
FaDu = assay: Bulk cancer cells, Cell Titer-Glo 72 hours (Test Example 2); assay type: cell-based; details: Homo sapiens
Description: (§2) Tubes of 3× drug (60 uM in 500 uL complete media) were prepared from 5 mM stock solutions in DMSO. […] To treat cells, 50 uL of drug from the dilution plate was removed and added to the cell plates. […] Cells were harvested 72 hours after drug addition using Cell Titer-Glo (Promega) and luminescence measured on a plate reader.

A549 = assay: as above; assay type: cell-based; details: Homo sapiens
Description: as §2

ACHN = assay: as above; assay type: cell-based; details: Homo sapiens, ACHN, 72 h
Description: as §2

A549 CSC = assay: Cancer stem cells, Cell Titer-Glo 72 hours (Test Example 3); assay type: cell-based; details: Homo sapiens
human RIOK2 protein = target: T1, human RIOK2 protein (Homo sapiens, UniProt Q9BVS4); assay: RIOK2 autophosphorylation ELISA (Test Example 4); assay type: biochemical; details: for inhibition at 1 µM: read-out: Inhibitory activity at 1 μM (%); for inhibition at 10 µM: read-out: Inhibitory activity at 10 μM (%)
T1 construct: glutathione S-transferase is fused to N-terminal of a full-length human RIOK2 protein; GST (glutathione S-transferase) (N); purchased CarnaBio, Inc; host or cells: baculovirus-Sf21 cell expression system
T1 sequence (Q9BVS4 whole entry, the tested form may be a part): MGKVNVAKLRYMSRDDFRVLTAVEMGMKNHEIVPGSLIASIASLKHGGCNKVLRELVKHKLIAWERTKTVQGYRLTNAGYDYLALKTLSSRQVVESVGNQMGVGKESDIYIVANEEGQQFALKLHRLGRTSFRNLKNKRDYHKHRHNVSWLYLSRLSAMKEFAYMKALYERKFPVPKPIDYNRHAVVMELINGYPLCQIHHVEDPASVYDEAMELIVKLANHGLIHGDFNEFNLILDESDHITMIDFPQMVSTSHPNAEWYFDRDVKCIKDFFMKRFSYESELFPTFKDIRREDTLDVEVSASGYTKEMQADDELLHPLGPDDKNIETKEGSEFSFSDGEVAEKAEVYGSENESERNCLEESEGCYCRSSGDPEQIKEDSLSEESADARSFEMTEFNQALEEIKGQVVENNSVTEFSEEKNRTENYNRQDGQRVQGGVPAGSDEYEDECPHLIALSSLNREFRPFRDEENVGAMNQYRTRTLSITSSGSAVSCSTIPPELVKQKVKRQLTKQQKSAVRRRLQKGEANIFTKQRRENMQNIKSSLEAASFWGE
Description: A protein in which glutathione S-transferase is fused to N-terminal of a full-length human RIOK2 protein was used as a recombinant human RIOK2 protein. The protein was prepared using a baculovirus-Sf21 cell expression system from CarnaBio, Inc. A kinase reaction solution was prepared by mixing 25 μg/mL of the recombinant human RIOK2 protein and 100 μM of ATP in 20 μl of kinase reaction buffer (50 mM Tris-HCl, 10 mM MgCl2, 10 mM MnCl2, 1 mM DTT, 0.01% Brij, 1× PhosSTOP (manufactured by Roche Applied Science)), and was incubated at a temperature of 30° C. for 1 hour. After adding 30 μl of 40 mM EDTA solution to this kinase reaction solution, the kinase reaction solution was transferred to a MaxiSorp 96 well plate (manufactured by Nunc). Thereafter, phosphorylated human RIOK2 protein was allowed to adsorb onto the wells by leaving the plate in a refrigerator overnight.
The following day, the supernatant was removed, and the wells were washed three times with ELISA buffer (20 mM Tris-HCl, 150 mM NaCl, 0.2% Tween-20, 0.1% BSA). Thereafter, 100 μl of Blocking-One P (product name; manufactured by Nacalai Tesque, Inc.) was applied to the wells, and a blocking treatment was performed for 1 hour at room temperature. […] After further washing the wells, a secondary antibody, anti-rabbit IgG conjugated with horseradish peroxidase (manufactured by Jackson ImmunoResearch; 1/4000 ELISA buffer-diluted solution), was applied to the wells, and incubation was performed for 30 minutes at room temperature. After washing the wells once again, 50 μl of tetramethyl benzidine (TMB) aqueous solution (manufactured by Nacalai Tesque, Inc.) was applied to the wells, and a coloring reaction was performed for 30 minutes at room temperature. Thereafter, the coloring reaction was stopped by adding 50 μl of 2M H2SO4 to the wells. An absorptiometric level of 450 nm was measured in each well using ARVO SX (manufactured by Wallac).

| Compound | activity at 5 µM (p-RPS6 Ser235/236; 5 uM) [%] | activity at 5 µM (p-RPS6 Ser240/244; 5 uM) [%] | activity at 5 µM (p-AMPK Thr172; 5 uM) [%] | IC50 (ACHN CSC) [µM] | IC50 (FaDu CSC) [µM] | activity at 5 µM (p-RPS6 Ser235/236; 5 uM compound, Western blot) [%] | activity at 5 µM (p-RPS6 Ser240/244; 5 uM compound, Western blot) [%] | activity at 5 µM (p-AMPK Thr172; 5 uM compound, Western blot) [%] | IC50 (FaDu) [µM] | IC50 (A549) [µM] | IC50 (ACHN) [µM] | IC50 (A549 CSC) [µM] | inhibition at 1 µM (human RIOK2 protein) [%] | inhibition at 10 µM (human RIOK2 protein) [%] |
| --- | --- | --- | --- | --- | --- | --- | --- | --- | --- | --- | --- | --- | --- | --- |
| Cc1nc(-c2ccccc2)oc1-c1ccc2c(c1)NC(=O)/C2=C\c1[nH]c(C)c(C(=O)N2CCN(C)CC2)c1C [Example 38] | 2 | 21 | 103 | 0.5 | 1.6 |  |  |  |  |  |  |  |  |  |
| COc1ncccc1-c1cccc2c1/C(=C/c1[nH]c(C)cc1C)C(=O)N2 [Example 271] |  |  |  |  |  | 67 | 67 | 105 | 22.6 |  |  |  |  |  |
| CCN(CC)CCNC(=O)c1c(C)[nH]c(/C=C2\C(=O)Nc3cc(-c4ccc(-c5ccccc5)s4)ccc32)c1C [Example 15] | 5 | 56 | 150 |  | 30.5 |  |  |  |  |  |  |  |  |  |
| Cc1cc(C)c(/C=C2\C(=O)Nc3c2cccc3-c2cncc3ccccc23)[nH]1 [Example 279] |  |  |  |  |  | 86 | 83 | 108 | 25.8 | 19.7 | 21 |  |  |  |
| CCN(CC)CCNC(=O)c1c(C)[nH]c(/C=C2\C(=O)Nc3c2cccc3-c2ccncc2)c1C [Example 284] |  |  |  | 4.99 | 4.41 | 60 | 65 | 56 | 6.74 | 6.85 | 6.39 | 12.6 |  |  |
| COc1ncc(-c2cccc3c2/C(=C/c2[nH]c(C)cc2C)C(=O)N3)cn1 [Example 277] |  |  |  |  |  | 77 | 75 | 145 | 35.3 | 21.1 | 28.1 |  |  |  |
| Cc1[nH]c(/C=C2\C(=O)Nc3cc(-c4csc(-c5ccccc5)n4)ccc32)c(C)c1C(=O)N1CCOCC1 [Example 36] | 4 | 44 | 118 |  | 41.9 |  |  |  |  |  |  |  |  |  |
| CCN(CC)CCNC(=O)c1c(C)[nH]c(/C=C2\C(=O)Nc3c2cccc3-c2cccnc2OC)c1C [Example 286] |  |  |  | 2.71 | 1.92 | 48 | 54 | 31 | 3.81 | 5.32 | 3.64 | 6.87 |  |  |
| Cc1cc(C)c(/C=C2\C(=O)Nc3cccc(-c4cncnc4)c32)[nH]1 [Example 278] |  |  |  |  |  | 44 | 43 | 198 | 39.7 | 16.3 | 16.8 |  |  |  |
| Cc1cc(C)c(/C=C2\C(=O)Nc3cccc(-c4ccc5cc[nH]c5c4)c32)[nH]1 [Example 273] |  |  |  | 18.9 |  | 36 | 35 | 27 | 16.4 | 16.6 | 20.4 | 20.2 |  |  |
| CCN(CC)CCNC(=O)c1c(C)[nH]c(/C=C2\C(=O)Nc3ccc(-c4nc(-c5ccccc5)cs4)cc32)c1C [Example 51, (Z)-N-(2-(diethylamino)ethyl)-2,4-dimethyl-5-((2-oxo-5-(4-phenylthiazol-2-yl)indolin-3-ylidene)methyl)-1H-pyrrole-3-carboxamide] | 21 | 64 | 12 |  | 0.27 |  |  |  | 1.18 | 4.74 | 1.64 | 4.28 |  |  |
| Cc1cc(C)c(/C=C2\C(=O)Nc3c2cccc3-c2cncnc2)[nH]1 [Example 276] |  |  |  |  |  | 51 | 50 | 113 | 28.1 | 25.2 | 26.9 |  |  |  |
| Cc1cc(C)c(/C=C2\C(=O)Nc3c2cccc3-c2ccncc2)[nH]1 [Example 281] |  |  |  |  |  | 68 | 65 | 83 |  | 23.5 |  |  |  |  |
| CCN(CC)CCNC(=O)c1c(C)[nH]c(/C=C2\C(=O)Nc3cc(-c4oc(-c5ccccc5)nc4C)ccc32)c1C [Example 37] | 4 | 43 | 151 | 1.65 | 8.09 |  |  |  | 3.55 | 7.49 | 2.97 |  |  |  |
| CCN(CC)CCNC(=O)c1c(C)[nH]c(/C=C2\C(=O)Nc3ccc(-c4ccnn4-c4ccccc4)cc32)c1C [Example 22] |  |  |  | 1.17 | 3.46 |  |  |  | 3.01 | 2.94 | 6.57 | 5.54 | 55 | 100 |
| CCN(CC)CCNC(=O)c1c(C)[nH]c(/C=C2\C(=O)Nc3ccc(-c4cnn(-c5ccccn5)c4)cc32)c1C [Example 32] |  |  |  | 0.13 | 0.05 |  |  |  | 0.51 | 1.72 | 1.24 | 2.53 | 36 | 86 |
| CCN(CC)CCNC(=O)c1c(C)[nH]c(/C=C2\C(=O)Nc3ccc(-c4ccc(-c5cccs5)s4)cc32)c1C [Example 27] | 5 | 41 | 21 |  | 0.83 |  |  |  | 2.51 |  |  |  |  |  |
| Cc1[nH]c(/C=C2\C(=O)Nc3cccc(-c4ccc(-c5ccccc5)cc4)c32)c(C)c1C(=O)N1CCN(C)CC1 [Example 110] | 2 | 36 | 105 |  | 1.21 |  |  |  | 7.56 | 21.5 | 14.9 | 5.76 |  |  |
| Cc1[nH]c(/C=C2\C(=O)Nc3cc(-c4ccc(-c5ccccc5)s4)ccc32)c(C)c1C(=O)N1CCN(C)CC1 [Example 29] | 36 | 68 | 108 |  |  |  |  |  |  |  |  |  |  |  |
| COc1ccc(-c2cccc3c2NC(=O)/C3=C\c2[nH]c(C)cc2C)cn1 [Example 274] |  |  |  |  |  | 63 | 59 | 91 | 28.4 | 24.4 | 28.3 | 43.4 |  |  |
| COC(=O)c1c(C)[nH]c(/C=C2\C(=O)Nc3ccc(-c4csc(C5CCNCC5)n4)cc32)c1C [Example 144] | 70 | 83 | 79 |  | 0.22 |  |  |  | 0.69 | 0.7 | 0.52 | 2.48 |  |  |
| Cc1cncc(-c2cccc3c2NC(=O)/C3=C\c2[nH]c(C)cc2C)c1 [Example 280] |  |  |  | 32 |  | 74 | 75 | 103 | 26.4 | 21.2 | 16 | 32 |  |  |
| COc1ncc(-c2cccc3c2NC(=O)/C3=C\c2[nH]c(C)cc2C)cn1 [Example 275] |  |  |  | 17.5 |  | 57 | 54 | 96 | 20.8 | 17.7 | 21.9 | 34.7 |  |  |
